Source: patent US10258620B2, “Crystalline form of 5-amino-2,3-dihydrophthalazine-1,4-dione sodium salt, pharmaceutical preparations containing the same and method for the production of said form” (METRIOPHARM AG, priority 2014, dated 2019)
Where a name gives a salt, the structure may show the parent alone. Read-outs that look alike come from different tables or passages of the source.

Columns and labels:
[1] = FIG. 8, increasing proportion of H2O
[2] = determination repeated 10 times
Protocol: After drying all forms produced were vortexed for 1 minute to let bigger agglomerates carefully disaggregate.
A sample of each of the respective solids to be determined was filled into a plastic funnel for solids (diameter of the outlet: 11 mm) with closable outlet which was mounted in a height of 20 mm above the collecting vessel. The funnel used was always filled half-full, thereby ensuring that there was always more sample material provided than necessary for filling the collecting vessel. After opening the outlet the respective solids trickled into the collecting vessel until it was filled up above the upper rim. The supernatant of the respective solids was removed with a spatula and the filled collecting vessel was weighed out with a high-resolution balance. The determination for each form was repeated 10 times and the mean value was calculated (Table 3).

[3] = 30-600° C., synthetic air, heating rate 10° C./min
Protocol: The determination was carried out by means of simultaneous thermogravimetry (differential scanning calorimetry) at a Linseis L81-077 coupled with mass spectroscopy measurements with a Netzsch STA 449 C (thermobalance) with MS and FTIR coupling over 30-600° C. under synthetic air (4 N2:1 O2) and a heating rate of 10° C./min. The data were analyzed with the company software Proteus.

IL-6 = details: PMA-differentiated HL60 cells, pre-stimulation 1 h with 1 mmol/l, then 100 ng/mL LPS 24 h, 3 measurements, LPS control 42.81
Protocol: (§1) For the differentiation to macrophages HL60 cells were treated with phorbol 12-myristate 13-acetate (PMA) in advance. […] The secretion of TNF alpha and IL-6 was determined in the cell supernatant using ELISA testing over 3 measurements, respectively. Table 4 as well as FIGS. 7a and 7b show the respective mean value m and the standard deviation s (GraphPad Prism 5).

TNF alpha = details: PMA-differentiated HL60 cells, pre-stimulation 1 h with 1 mmol/l, then 100 ng/mL LPS 24 h, 3 measurements, LPS control 30.08
Protocol: as §1

[4] = methanol or ethanol
From the text: In polymorphs of crystalline solids phase transitions occur depending on the thermodynamic stability of the individual forms. […] Different transformation processes are known. […] In this respect so-called slurry experiments can provide information on the thermodynamic stability of polymorphs of a solid.
To compare the stability under the influence of solvents 50:50 (wt %) solid phase mixtures were produced of form III according to the invention and form I as well as of form III according to the invention and form II.
In each case 0.05 g of the respective solid phase mixture were suspended in 5 mL 2-propanol, methanol or ethanol, respectively. The mixture of form III and form I was stirred at RT for 3 days. The mixture of form III and form II was stirred at RT for 24 h. The suspensions were filtered under vacuum utilizing a Büchner funnel. The remaining crystalline solid was completely dried at RT. X-ray powder diffraction patterns of the resulting crystalline solids were recorded with a Bragg-Brentano diffractometer (STOE STADI P) provided with a DECTRIS MythenlK detector using mono-chromatized (Ge111-monochromator) copper emissions Cu K(α1) (wave length λ=1.54187 Å).

physchem = test: physchem
Protocol: Determination of the maximum solubility of crystalline form III in water at RT was carried out with UV-Vis spectroscopy in an Agilent Cary 300 UV-Vis spectrometer. This process is based on a linear correlation between the concentration of a dissolved solid and the calculated absorption at a particular wavelength (Beer-Lambert law).
A stock solution of 0.502 g of form III in 2 mL H2O (demineralized) was produced. For the generating a 3-point calibration curve three solutions were produced after appropriate dilution thereof with concentrations of 0.5041 mmol/l, 0.2521 mmol/l and 0.1260 mmol/l, and their respective absorption at 347 nm was determined. […] Further, a supersaturated solution of 0.531 g of form III in 2 mL H2O (demineralized) was produced to determine the maximum concentration. 100 μL of the solution were 2000-fold diluted and the absorption at 347 nm was determined as well.

[5] = from WO2011/107295A1; cited from earlier work
[6] = water, thermodynamic from solid

SMILES: Nc1cccc2c(=O)[nH][nH]c(=O)c12 [5-amino-2,3-dihydrophthalazine-1,4-dione sodium salt]
- solubility in a DMSO-H2O mixture with increasing proportion of H2O [1]: increases continuously

SMILES: Nc1cccc2c(=O)[nH][nH]c(=O)c12 [Form III, 5-amino-2,3-dihydrophthalazine-1,4-dione sodium salt]
- Bulk densities (mean ± standard deviation) ([2]; sodium salt): 203.5 ± 6.7 kg/m^3
- temperature at which decomposition starts [3]: 391.7 °C
- IL-6 secretion, mean m (IL-6; sodium salt): 34.86 pg/mL
- TNF-alpha secretion, mean m (TNF alpha; sodium salt): 22.15 pg/mL
- thermodynamic stability versus form I ([4]; 50:50 wt % mixture of form I and form III in 2-propanol, stirred at RT for 3 days): thermodynamically more stable polymorph
- thermodynamic stability versus form II ([4]; 50:50 wt % mixture of form II and form III in 2-propanol, stirred at RT for 24 h): thermodynamically more stable polymorph
- solubility in water compared with forms I and II (physchem; RT, forms I and II cf. WO2011/107295A1): less soluble than forms I and II
- solubility (physchem; [6]): 145 mg/mL
- solubility thermodynamic (physchem; [6]): 730 mM

SMILES: Nc1cccc2c(=O)[nH][nH]c(=O)c12 [Form I, 5-amino-2,3-dihydrophthalazine-1,4-dione sodium salt]
- Bulk densities (mean ± standard deviation) ([2]; sodium salt): 201.9 ± 3.9 kg/m^3
- IL-6 secretion, mean m (IL-6; sodium salt): 41.15 pg/mL
- TNF-alpha secretion, mean m (TNF alpha; sodium salt): 25.28 pg/mL

SMILES: Nc1cccc2c(=O)[nH][nH]c(=O)c12 [Dihydrate, 5-amino-2,3-dihydrophthalazine-1,4-dione sodium salt dihydrate]
- Bulk densities (mean ± standard deviation) ([2]; sodium salt dihydrate): 72.3 ± 4.1 kg/m^3
- IL-6 secretion, mean m (IL-6; sodium salt dihydrate): 40.93 pg/mL
- TNF-alpha secretion, mean m (TNF alpha; sodium salt dihydrate): 26.87 pg/mL
- solid phase transition temperature [5]: 85 °C

SMILES: Nc1cccc2c(=O)[nH][nH]c(=O)c12 [Form II, 5-amino-2,3-dihydrophthalazine-1,4-dione sodium salt]
- Bulk densities (mean ± standard deviation) ([2]; sodium salt): 108.6 ± 3.0 kg/m^3
- IL-6 secretion, mean m (IL-6; sodium salt): 36.11 pg/mL
- TNF-alpha secretion, mean m (TNF alpha; sodium salt): 22.16 pg/mL
